Values after ≈ are worked out from the molar mass of the structure shown. Values joined by “and” are separate entries in the source; they are usually repeats but may differ in a detail not shown here. Equal values may be shown once.
How the values were obtained:
Test in all cases: ≥ marks a high value that may be exact or a test limit, other limits are often not marked, values filed in µg/mL are converted to µM
Staphylococcus aureus = tested on: Staphylococcus aureus
Escherichia coli = tested on: Escherichia coli
[1] = tested on: Enterococcus faecalis ATCC 29212
[2] = tested on: Pseudomonas aeruginosa ATCC 27853
[3] = tested on: Escherichia coli ATCC 25922
[4] = tested on: Staphylococcus aureus ATCC 25923
[5] = tested on: Staphylococcus aureus ATCC 29213
Pseudomonas aeruginosa = tested on: Pseudomonas aeruginosa
[6] = tested on: Staphylococcus aureus ATCC 43300
[7] = tested on: Candida albicans ATCC 90028
[8] = tested on: Staphylococcus epidermidis ATCC 12228

CC[C@H](C)[C@H](NC(=O)CNC(=O)[C@H](CO)NC(=O)[C@H](CC(C)C)NC(=O)[C@@H](NC(=O)CN)[C@@H](C)CC)C(=O)N[C@@H](CC(C)C)C(=O)NCC(=O)N[C@@H](C)C(=O)NCC(=O)N[C@@H](CCCCN)C(=O)N[C@@H](CO)C(=O)N[C@@H](CC(C)C)C(=O)N[C@H](C(=O)N[C@H]1CSSC[C@@H](C(=O)O)NC(=O)[C@H](CC(C)C)NC(=O)CNC(=O)[C@H](CO)NC(=O)[C@H](CC(C)C)NC(=O)CNC1=O)C(C)C [GILSGILGAGKSLVCGLSGLC]
MIC (Staphylococcus aureus): > 100 µM
MIC (Escherichia coli): 50 µM (≈ 95.8 µg/mL)

CC[C@H](C)[C@H](NC(=O)CNC(=O)[C@H](CCCCN)NC(=O)[C@H](CC(C)C)NC(=O)[C@H](CCSC)NC(=O)[C@H](CC(N)=O)NC(=O)[C@H](CCCCN)NC(=O)[C@H](Cc1c[nH]c2ccccc12)NC(=O)[C@H](CC(C)C)NC(=O)[C@H](C)N)C(=O)NCC(=O)N[C@@H](CCCCN)C(=O)N[C@@H](CC(C)C)C(=O)N[C@@H](C)C(=O)NCC(=O)N[C@@H](CCC(N)=O)C(=O)N[C@@H](C)C(=O)N[C@@H](C)C(=O)N[C@@H](CC(C)C)C(=O)NCC(=O)N[C@@H](C)C(=O)N[C@H](C(=O)N[C@@H](CCCCN)C(=O)N[C@H](C(=O)N[C@@H](CC(C)C)C(=O)N[C@H](C(=O)NCC(=O)N[C@@H](C)C(=O)N[C@@H](CCC(=O)O)C(=O)N[C@@H](CO)C(=O)O)C(C)C)[C@@H](C)O)C(C)C [ALWKNMLKGIGKLAGQAALGAVKTLVGAES]
MIC [1]: 22 µM (≈ 65.9 µg/mL)
MIC [2]: 5.4 µM (≈ 16.2 µg/mL)
MIC [3]: 1.3 µM (≈ 3.9 µg/mL)
MIC [4]: 2.7 µM (≈ 8.09 µg/mL)

CC[C@H](C)[C@H](NC(=O)[C@H](CCCN=C(N)N)NC(=O)[C@H](CCC(N)=O)NC(=O)[C@@H](NC(=O)[C@@H](NC(=O)[C@H](CCCN=C(N)N)NC(=O)[C@H](CCCCN)NC(=O)[C@@H](N)Cc1ccccc1)[C@@H](C)CC)C(C)C)C(=O)N[C@@H](CCCCN)C(=O)N[C@@H](CC(=O)O)C(=O)N[C@@H](CCC(N)=O)C(=O)N[C@@H](CC(C)C)C(=O)N[C@@H](CCCN=C(N)N)C(=O)O [FKRIVQRIKDQLR]
MIC [5]: > 40 µM
MIC [3]: 10 µM (≈ 17 µg/mL)

CC[C@H](C)[C@H](N)C(=O)N[C@H](C(=O)N[C@@H](CCCN=C(N)N)C(=O)N[C@H](C(=O)N[C@@H](C)C(=O)N[C@H](C(=O)N[C@@H](C)C(=O)N[C@@H](CC(C)C)C(=O)N[C@@H](CCCN=C(N)N)C(=O)N[C@@H](CCCN=C(N)N)C(=O)N[C@H](C(=O)N[C@@H](CCCN=C(N)N)C(N)=O)[C@@H](C)CC)C(C)C)C(C)C)C(C)C [IVRVAVALRRIR]
MIC (Pseudomonas aeruginosa): 51.3 µM (≈ 73 µg/mL)

NCCCC[C@H](NC(=O)[C@H](CCCCN)NC(=O)[C@H](CCCN=C(N)N)NC(=O)[C@H](CCCN=C(N)N)NC(=O)[C@H](Cc1c[nH]c2ccccc12)NC(=O)[C@H](Cc1c[nH]c2ccccc12)NC(=O)[C@H](CCCN=C(N)N)NC(=O)[C@H](CCCCN)NC(=O)[C@H](CCCCN)NC(=O)[C@@H](N)CCCN=C(N)N)C(N)=O [RKKRWWRRKK]
MIC (Escherichia coli): 3 µM and 6 µM
MIC [4]: 3 µM and 6 µM

CC[C@H](C)[C@H](NC(=O)CN)C(=O)NCC(=O)N[C@@H](C)C(=O)N[C@H](C(=O)N[C@@H](CC(C)C)C(=O)N[C@@H](CCCCN)C(=O)N[C@H](C(=O)N[C@@H](CC(C)C)C(=O)N[C@H](C(=O)N[C@H](C(=O)NCC(=O)N[C@@H](CC(C)C)C(=O)N[C@@H](CS)C(=O)N[C@@H](C)C(=O)N[C@@H](CC(C)C)C(=O)N[C@H](C(=O)N[C@@H](CO)C(=O)N[C@@H](Cc1c[nH]c2ccccc12)C(=O)N[C@H](C(=O)N[C@@H](CCCCN)C(=O)N[C@@H](CCCN=C(N)N)C(=O)N[C@@H](CCCCN)C(=O)N[C@@H](CCCN=C(N)N)C(=O)N[C@@H](CCC(N)=O)C(=O)N[C@@H](CCC(N)=O)C(=O)O)[C@@H](C)CC)[C@@H](C)CC)[C@@H](C)O)[C@@H](C)O)C(C)C)C(C)C [GIGAVLKVLTTGLCALISWIKRKRQQ]
MIC [6]: 62.5 µM (≈ 178 µg/mL)
MIC [5]: 62.5 µM (≈ 178 µg/mL)
MIC [2]: 62.5 µM (≈ 178 µg/mL)
MIC [3]: 62.5 µM (≈ 178 µg/mL)

CC[C@H](C)[C@H](NC(=O)[C@@H]1CCCN1C(=O)[C@H](CC(C)C)NC(=O)[C@@H](N)Cc1ccccc1)C(=O)N[C@@H](CC(C)C)C(=O)NCC(=O)N[C@@H](CCCCN)C(=O)N[C@@H](CC(C)C)C(=O)N[C@@H](CC(C)C)C(=O)N[C@@H](CO)C(=O)NCC(=O)N[C@@H](Cc1ccccc1)C(=O)N[C@@H](CC(C)C)C(N)=O [FLPILGKLLSGFL]
MIC [3]: > 160 µM
MIC [4]: 10 µM (≈ 14.2 µg/mL)
MIC [7]: ≥ 80 µM

CC(C)C[C@H](NC(=O)[C@H](CCCCN)NC(=O)[C@H](CC(C)C)NC(=O)[C@H](CC(C)C)NC(=O)[C@H](CCCCN)NC(=O)[C@H](CCCCN)NC(=O)[C@H](C)NC(=O)[C@H](CC(C)C)NC(=O)[C@H](CCCCN)NC(=O)[C@H](CC(C)C)NC(=O)[C@H](CC(C)C)NC(=O)[C@H](CCCCN)NC(=O)[C@H](CCCCN)NC(=O)[C@@H](N)CC(C)C)C(=O)N[C@@H](C)C(=O)NCC(=O)O [LKKLLKLAKKLLKLAG]
MIC [5]: 5 µM (≈ 8.89 µg/mL)
MIC [3]: 5 µM (≈ 8.89 µg/mL)

CC[C@H](C)[C@H](NC(=O)CNC(C)=O)C(=O)NCC(=O)N[C@@H](CCCCN)C(=O)N[C@@H](Cc1ccccc1)C(=O)N[C@@H](CC(C)C)C(=O)N[C@@H](Cc1cnc[nH]1)C(=O)N[C@@H](CO)C(=O)N[C@@H](C)C(=O)N[C@@H](CCCCN)C(=O)N[C@@H](CCCCN)C(=O)N[C@@H](Cc1ccccc1)C(=O)NCC(=O)N[C@@H](CCCCN)C(=O)N[C@@H](C)C(=O)N[C@@H](Cc1ccccc1)C(=O)N[C@H](C(=O)NCC(=O)N[C@@H](CCC(N)=O)C(=O)N[C@H](C(=O)N[C@@H](CCSC)C(=O)N[C@@H](CC(N)=O)C(=O)N[C@@H](CO)C(N)=O)[C@@H](C)CC)C(C)C [GIGKFLHSAKKFGKAFVGQIMNS]
MIC [3]: 20 µM (≈ 50.1 µg/mL)
MIC [8]: 20 µM (≈ 50.1 µg/mL)

CC[C@H](C)[C@H](NC(=O)[C@H](CCCCN)NC(=O)[C@H](C)NC(=O)[C@@H](N)CCC(N)=O)C(=O)N[C@@H](CCCN=C(N)N)C(=O)N[C@H](C(=O)N[C@@H](CCCN=C(N)N)C(=O)N[C@@H](CC(C)C)C(=O)N[C@@H](CO)C(=O)N[C@@H](C)C(=O)O)C(C)C [QAKIRVRLSA]
MIC [5]: > 56.1 µM
MIC [2]: 28 µM (≈ 32 µg/mL)
MIC [3]: 112 µM (≈ 128 µg/mL)

CC[C@H](C)[C@H](NC(=O)CN)C(=O)N[C@@H](CCSC)C(=O)N[C@@H](CC(=O)O)C(=O)N[C@H](C(=O)N[C@H](C(=O)N[C@@H](CCCCN)C(=O)NCC(=O)N[C@@H](C)C(=O)N[C@@H](C)C(=O)N[C@@H](CCCCN)C(=O)N[C@@H](CC(=O)O)C(=O)N[C@@H](CC(C)C)C(=O)N[C@@H](C)C(=O)NCC(=O)N[C@@H](CCC(N)=O)C(=O)N[C@@H](CC(C)C)C(=O)N[C@@H](CC(C)C)C(=O)N[C@@H](CC(=O)O)C(=O)N[C@@H](CCCCN)C(=O)N[C@@H](CC(C)C)C(=O)N[C@@H](CCCCN)C(=O)N[C@H]1CSSC[C@@H](C(=O)O)NC(=O)[C@H](CCCCN)NC(=O)[C@H]([C@@H](C)O)NC(=O)[C@H]([C@@H](C)CC)NC(=O)[C@H](CCCCN)NC1=O)[C@@H](C)CC)[C@@H](C)O [GIMDTIKGAAKDLAGQLLDKLKCKITKC]
MIC [3]: 75 µM (≈ 223 µg/mL)
MIC [4]: > 150 µM
MIC [7]: ≥ 150 µM

CC(C)C[C@H](NC(=O)[C@H](CCCCN)NC(=O)CNC(=O)[C@H](C)NC(=O)[C@H](CC(C)C)NC(=O)[C@H](CCCCN)NC(=O)[C@H](C)NC(=O)[C@H](CC(C)C)NC(=O)[C@H](CCCCN)NC(=O)CNC(=O)[C@H](C)NC(=O)[C@H](Cc1c[nH]c2ccccc12)NC(=O)[C@H](CCCCN)NC(=O)[C@H](C)NC(=O)[C@H](CC(C)C)NC(=O)[C@H](CCCCN)NC(=O)CNC(=O)[C@H](C)NC(=O)[C@H](CC(C)C)NC(=O)[C@@H](N)CCCCN)C(=O)N[C@@H](C)C(N)=O [KLAGKLAKWAGKLAKLAGKLA]
MIC (Staphylococcus aureus): 3.74 µM (≈ 8 µg/mL)
MIC (Pseudomonas aeruginosa): 7.49 µM (≈ 16 µg/mL)
MIC (Escherichia coli): 3.74 µM (≈ 8 µg/mL)

NCC(=O)N[C@@H](CCCN=C(N)N)C(=O)N[C@@H](CCCN=C(N)N)C(=O)N1CCC[C@H]1C(=O)N[C@@H](CCCN=C(N)N)C(=O)N1CCC[C@H]1C(=O)N[C@@H](CCCN=C(N)N)C(=O)N1CCC[C@H]1C(=O)N[C@@H](CCCN=C(N)N)C(=O)N1CCC[C@H]1C(=O)N[C@@H](Cc1ccccc1)C(=O)N[C@@H](Cc1ccccc1)C(=O)N[C@@H](Cc1ccccc1)C(N)=O [GRRPRPRPRPFFF]
MIC [5]: 40 µM (≈ 67.4 µg/mL)
MIC [2]: > 160 µM
MIC [3]: 160 µM (≈ 270 µg/mL)

CC(C)C[C@H](NC(=O)[C@H](CCCCN)NC(=O)[C@H](C)NC(=O)[C@H](CC(C)C)NC(=O)[C@H](CCCCN)NC(=O)[C@H](CCCCN)NC(=O)[C@H](CC(C)C)NC(=O)[C@H](CC(C)C)NC(=O)[C@H](CCCCN)NC(=O)[C@H](CC(C)C)NC(=O)[C@H](CC(C)C)NC(=O)[C@H](CCCCN)NC(=O)[C@H](CCCCN)NC(=O)[C@@H](N)CC(C)C)C(=O)N[C@@H](C)C(=O)NCC(=O)O [LKKLLKLLKKLAKLAG]
MIC [5]: 10 µM (≈ 17.8 µg/mL)
MIC [3]: 10 µM (≈ 17.8 µg/mL)

CC[C@H](C)[C@H](NC(=O)CN)C(=O)N[C@@H](CCCCN)C(=O)N[C@@H](CCCCN)C(=O)N[C@@H](Cc1c[nH]c2ccccc12)C(=O)N1CCC[C@H]1C(=O)N[C@@H](Cc1cnc[nH]1)C(=O)N[C@@H](CCCCN)C(=O)N1CCC[C@H]1C(=O)N[C@@H](CCCCN)C(=O)N[C@@H](CCCCN)C(=O)N[C@@H](Cc1ccccc1)C(=O)NCC(=O)N[C@@H](CCCCN)C(=O)N[C@@H](CCCCN)C(=O)N[C@@H](Cc1ccccc1)C(=O)N[C@H](C(=O)N[C@@H](CCCCN)C(=O)N[C@@H](CCCCN)C(=O)N[C@H](C(=O)N[C@@H](CCCCN)C(=O)N[C@@H](CCCCN)C(=O)N[C@@H](CO)C(N)=O)[C@@H](C)CC)C(C)C [GIKKWPHKPKKFGKKFVKKIKKS]
MIC [3]: 10 µM (≈ 27.7 µg/mL)
MIC [8]: 5 µM (≈ 13.8 µg/mL)

Source: DBAASP
